From patent US20250268826A1, “IONIZABLE LIPIDOID COMPOSITIONS AND THERAPEUTIC USES THEREOF” (Flagship Pioneering Innovations VII, LLC, priority 2023, published 2025) come the findings set out here.

Holding throughout (type): physicochemical
Series [1] can be described thus: LNP size and polydispersity index (PDI) by dynamic light scattering (DLS).
Series [2] can be described thus: LNP Zeta potential measured using a Zetasizer (Malvern). The note with it: for Zeta potential: hEPO mRNA, N:P 6; for Zeta potential (mV): LNP with hEPO mRNA, N:P ratio 6.
Series [3] in a line: Encapsulation efficiency (EE %) by fluorescence based Ribogreen assay.
The mark [4] stands for this setting: Table 9, LNP 50:10:38.5:1.5 mol %, hEPO mRNA, N:P 6.
Where [5] appears, read: Table 9, LNP Lipid:DSPC:Cholesterol:DMG-PEG2k 50:10:38.5:1.5 mol %, hEPO mRNA, N:P 6.
Setting [6] is: Table 9, LNP 50:10:38.5:1.5 mol %.
Setting [7] is: Table 10, LNP with hEPO mRNA, Lipid:DSPC:Cholesterol:DMG-PEG2k 50:10:38.5:1.5 mol %, N:P ratio 6, DLS.
Setting [8] is: Table 11, LNP with hEPO mRNA, Lipid:DSPC:Cholesterol:DMG-PEG2k 50:10:38.5:1.5 mol % (ALC-0315: 46.3:9.4:42.7:1.6), N:P ratio 6, HEPES/sodium chloride/sucrose buffer, stored at −80C.
Setting [9] is: Table 1, LNP lipid:DSPC:Cholesterol:DMG-PEG2k 50:10:38.5:1.5 mol %, hEPO mRNA, N:P 6.
The mark [10] stands for this setting: Table 1, LNP lipid:DSPC:Cholesterol:DMG-PEG2k 50:10:38.5:1.5 mol %.
The mark [11] stands for this setting: Table 3, LNP 50:10:38.5:1.5 mol %, hEPO mRNA, N:P 6.
Setting [12] is: Table 3, LNP lipid:DSPC:Cholesterol:DMG-PEG2k 50:10:38.5:1.5 mol %, hEPO mRNA, N:P 6.
The mark [13] stands for this setting: Table 8, LNP 50:10:38.5:1.5 mol %, hEPO mRNA, N:P 6.

Where two headings read alike, the source gives them in different places.

For the molecule `CCCCCCCCC(CCCCCC)C(=O)OCCN(CCOC(=O)C(CCCCCC)CCCCCCCC)C(=O)CN(CC)CCC.Cl` (single isomer, unassigned) [Compound 960a], the PDI in series [1] (setting [4]) was 0.125. Moreover, the Size in series [1] (setting [5]) stood at 77.4 nm. In series [2] (setting [6]), this molecule registered a Zeta potential of −28.49 mV. Further, the “Encapsulation Efficiency %” value in series [3] (setting [4]) is 99.7%.

In the case of `CCCCCCCCC(CCCCCC)C(=O)OCCN(CCOC(=O)C(CCCCCC)CCCCCCCC)C(=O)CN(CC)CCC.Cl` (single isomer, unassigned) [Compound 960b], in series [1] (setting [4]), the PDI worked out at 0.099. The same molecule came in with a Size in series [1] (setting [5]) of 61.4 nm. Besides, the Zeta potential in series [2] (setting [6]) is on record as −23.35 mV. Also, the “Encapsulation Efficiency %” value in series [3] (setting [4]) is listed as 99.8%.

Regarding `CCCCCCCCC(CCCCCC)C(=O)OCCCCCCN(CCCCO)CCCCCCOC(=O)C(CCCCCC)CCCCCCCC` (stereo not shown) [ALC-0315, reference compound], the PDI was found to be 0.295 in series [1] (setting [7]) and 0.280 in series [1] (setting [8]). The “Size (nm)” value in series [1] (setting [7]) was found to be 61.4 nm; in series [1] (setting [8]), 74.7 nm. Also, the “Zeta potential (mV)” value is −10.3 mV in series [2] (Table 10, Lipid:DSPC:Cholesterol:DMG-PEG2k 50:10:38.5:1.5 mol %) and −7.5 mV in series [2] (Table 11, Lipid:DSPC:Cholesterol:DMG-PEG2k 50:10:38.5:1.5 mol % (ALC-0315: 46.3:9.4:42.7:1.6), HEPES/sodium chloride/sucrose buffer, stored at −80C). In addition, the “Encapsulation Efficiency %” value in series [3] (Table 10, LNP with hEPO mRNA, Lipid:DSPC:Cholesterol:DMG-PEG2k 50:10:38.5:1.5 mol %, N:P ratio 6, Ribogreen assay) is reported as 83.8%; in series [3] (setting [8]), 91.0%.

In series [1] (setting [9]), `CCCCCCCC/C=C\CCCCCCCC(=O)OCCN(CCOC(=O)CCCCCCC/C=C\CCCCCCCC)C(=O)CN` [Compound 101] came in with a PDI of 0.088 and a Size of 62.6 nm. The Zeta potential in series [2] (setting [10]) amounted to 4.394 mV. Further, the “Encapsulation Efficiency %” value in series [3] (setting [9]) was 97.9%.

In series [1] (setting [9]), `CCCCCCCCCCCC(=O)OCCN(CCOC(=O)CCCCCCCCCCC)C(=O)CN` [Compound 103] returned a PDI of 0.092 and a Size of 77.3 nm. The Zeta potential in series [2] (setting [10]) is listed as 9.778 mV. Besides, the “Encapsulation Efficiency %” value in series [3] (setting [9]) amounted to 97.5%.

In series [1] (setting [9]), `CCCCCCCCCC(=O)OCCN(CCOC(=O)CCCCCCCCC)C(=O)CN` [Compound 104] had a PDI of 0.441 and a Size of 74.7 nm. This molecule also came in with a Zeta potential in series [2] (setting [10]) of −2.361 mV. The “Encapsulation Efficiency %” value in series [3] (setting [9]) is 94.4%.

In series [1] (setting [9]), `CCCCCCCC/C=C\CCCCCCCC(=O)OCCN(CCOC(=O)CCCCCCC/C=C\CCCCCCCC)C(=O)C(N)Cc1c[nH]cn1` (stereo not shown) [Compound 125] gave a PDI of 0.46 and a Size of 109.4 nm. Moreover, the “Encapsulation Efficiency %” value in series [3] (setting [9]) stood at 99.4%.

In series [1] (setting [9]), `CCCCCCCCC(CCCCCC)C(=O)OCCN(CCOC(=O)C(CCCCCC)CCCCCCCC)C(=O)C(N)Cc1c[nH]cn1` (stereo not shown) [Compound 129] had a Size of 93.8 nm. In addition, the “Encapsulation Efficiency %” value in series [3] (setting [9]) came to 99.7%.

On to `CCCCCCCC/C=C\CCCCCCCC(=O)OCCN(CCOC(=O)CCCCCCC/C=C\CCCCCCCC)C(=O)[C@H](C)N.Cl` [Compound 201], for which, in series [1] (setting [11]), the PDI was 0.032. This molecule showed a Size in series [1] (setting [12]) of 63.1 nm. In addition, the “Encapsulation Efficiency %” value in series [3] (setting [11]) is listed as 99.9%.

For the molecule `CCCCCCCC/C=C\CCCCCCCC(=O)OCCN(CCOC(=O)CCCCCCC/C=C\CCCCCCCC)C(=O)[C@@H](N)Cc1ccccc1.Cl` [Compound 202], in series [1] (setting [11]), the PDI is 0.033. The molecule also came in with a Size in series [1] (setting [12]) of 60.7 nm. Moreover, the “Encapsulation Efficiency %” value in series [3] (setting [11]) stood at 99.7%.

For the molecule `CCCCCCCCC(CCCCCC)C(=O)OCCN(CCOC(=O)C(CCCCCC)CCCCCCCC)C(=O)CC(C)NCCC.Cl` (stereo not shown) [Compound 948], the PDI in series [1] (setting [13]) worked out at 0.188. The molecule further displayed a Size in series [1] (Table 8, LNP Lipid:DSPC:Cholesterol:DMG-PEG2k 50:10:38.5:1.5 mol %, hEPO mRNA, N:P 6) of 74.1 nm. Further, the “Encapsulation Efficiency %” value in series [3] (setting [13]) turned out to be 99.7%.

Turning to `CCCCCCCCC(CCCCCC)C(=O)OCCN(CCOC(=O)C(CCCCCC)CCCCCCCC)C(=O)CN(C)C` (stereo not shown) [Compound 961], the “Encapsulation Efficiency %” value in series [3] is given as 99.8%.
